Where a name gives a salt, the structure may show the parent alone.
Each molecule was assayed against T1, HCV polymerase (Hepatitis C virus genotype 1b, UniProt P26663) (assay: biochemical). Settings: not given.
T1 construct: a region encoding NS5B (J Virol 1991 March, 65(3), 1105-13, 544 amino acids after deletion of 47 amino acids on the C-terminal); 6xHis (C); made in house; host or cells: Escherichia coli
T1 sequence (P26663 2420-2963): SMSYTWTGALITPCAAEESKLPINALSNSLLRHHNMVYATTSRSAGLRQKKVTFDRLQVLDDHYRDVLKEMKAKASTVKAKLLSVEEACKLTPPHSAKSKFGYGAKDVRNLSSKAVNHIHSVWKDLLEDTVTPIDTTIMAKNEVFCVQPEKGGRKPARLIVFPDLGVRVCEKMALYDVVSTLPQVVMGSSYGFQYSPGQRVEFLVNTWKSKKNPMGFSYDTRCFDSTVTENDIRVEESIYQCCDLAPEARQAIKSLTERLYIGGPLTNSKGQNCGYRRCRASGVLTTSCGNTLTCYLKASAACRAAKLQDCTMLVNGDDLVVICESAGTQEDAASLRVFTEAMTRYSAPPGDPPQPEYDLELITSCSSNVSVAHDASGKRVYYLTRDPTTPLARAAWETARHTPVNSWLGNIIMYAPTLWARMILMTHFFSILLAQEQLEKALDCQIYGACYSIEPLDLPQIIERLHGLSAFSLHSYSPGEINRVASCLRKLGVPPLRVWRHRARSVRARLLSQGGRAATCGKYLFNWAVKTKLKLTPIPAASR
Design: species or system HCV BK strain
Outline: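 His-tagged NS5B (BK strain, 47-aa C-terminal deletion, E. coli-expressed) at 0.5 μg/ml copied 5 μg/ml run-off RNA bearing the HCV 3′ UTR with 2 μM UTP plus [3H]UTP, 50 μM ATP/GTP, in pH 7.5 Tris with 5 mM MgCl2, 25 °C, 90 min. TCA-precipitated RNA was counted and IC50 calculated.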
With `COCC[C@@H]1CCCN(CCN2CCn3c(c(C4CCCCC4)c4ccc(C(=O)O)cc43)-c3ccc(OC)cc32)C1` [Example 1-445, 13-cyclohexyl-3-methoxy-5-{2-[(S)-3-(2-methoxyethyl)piperidin-1-yl]ethyl}-6,7-dihydro-5H-benzo[5,6][1,4]diazepino[7,1-a]indole-10-carboxylic acid dihydrochloride] the IC50 was < 100 nM.
For `CSc1ccc2c(c1)N(C)CCn1c-2c(C2CCCCC2)c2ccc(C(=O)NC3(C(=O)Nc4ccc(/C=C/C(=O)O)cc4)CCC3)cc21` [Example 1-450, (E)-3-[4-({1-[(13-cyclohexyl-5-methyl-3-methylsulfanyl-6,7-dihydro-5H-benzo[5,6][1,4]diazepino[7,1-a]indole-10-carbonyl)amino]cyclobutanecarbonyl}amino)phenyl]acrylic acid], the IC50 was < 100 nM.
`Cc1ccc2c(c1)N(CCN1CCCCC1)CCn1c-2c(C2CCCCC2)c2ccc(C(=O)O)c(Cl)c21` [Example 1-451, 9-chloro-13-cyclohexyl-3-methyl-5-[2-(piperidin-1-yl)ethyl]-6,7-dihydro-5H-benzo[5,6][1,4]diazepino[7,1-a]indole-10-carboxylic acid dihydrochloride] was tested, and the IC50 was < 100 nM.
With `Cc1ccc2c(c1)N(C)CCn1c-2c(C2CCCCC2)c2ccc(C(=O)O)c(Cl)c21` [Example 1-452, 9-chloro-13-cyclohexyl-3,5-dimethyl-6,7-dihydro-5H-benzo[5,6][1,4]diazepino[7,1-a]indole-10-carboxylic acid] the IC50 was < 100 nM.
For `CCN1CCn2c(c(C3CCCCC3)c3ccc(C(=O)O)cc32)-c2ccc(OC)cc21` [Example 1-474, 13-cyclohexyl-5-ethyl-3-methoxy-6,7-dihydro-5H-benzo[5,6][1,4]diazepino[7,1-a]indole-10-carboxylic acid], the IC50 was < 100 nM.
For `COc1ccc2c(c1)N(C(C)C)CCn1c-2c(C2CCCCC2)c2ccc(C(=O)O)cc21` [Example 1-475, 13-cyclohexyl-5-isopropyl-3-methoxy-6,7-dihydro-5H-benzo[5,6][1,4]diazepino[7,1-a]indole-10-carboxylic acid monohydrochloride], the IC50 was < 100 nM.
In the case of `Cc1ccc2c(c1)N(CC(=O)N1CCCOCC1)CCn1c-2c(C2CCCCC2)c2ccc(C(=O)O)cc21` [Example 1-476, sodium salt of 13-cyclohexyl-3-methyl-5-[2-(1,4-oxazepan-4-yl)-2-oxoethyl]-6,7-dihydro-5H-benzo[5,6][1,4]diazepino[7,1-a]indole-10-carboxylic acid], the IC50 is reported as < 100 nM.
With `CCN1CCn2c(c(C3CCCCC3)c3ccc(C(=O)NC4(C(=O)Nc5ccc(/C=C/C(=O)O)cc5)CCC4)cc32)-c2ccc(OC)cc21` [Example 1-477, (E)-3-[4-({1-[(13-cyclohexyl-5-ethyl-3-methoxy-6,7-dihydro-5H-benzo[5,6][1,4]diazepino[7,1-a]indole-10-carbonyl)amino]cyclobutanecarbonyl}amino)phenyl]acrylic acid] the IC50 was < 100 nM.
In the case of `COc1ccc2c(c1)N(C(C)C)CCn1c-2c(C2CCCCC2)c2ccc(C(=O)NC3(C(=O)Nc4ccc(/C=C/C(=O)O)cc4)CCC3)cc21` [Example 1-478, (E)-3-[4-({1-[(13-cyclohexyl-5-isopropyl-3-methoxy-6,7-dihydro-5H-benzo[5,6][1,4]diazepino[7,1-a]indole-10-carbonyl)amino]cyclobutanecarbonyl}amino)phenyl]acrylic acid], the IC50 is reported as < 100 nM.
For `COCCN1CCn2c(c(C3CCCCC3)c3ccc(C(=O)O)cc32)-c2ccc(OC)cc21` [Example 1-479, 13-cyclohexyl-3-methoxy-5-(2-methoxyethyl)-6,7-dihydro-5H-benzo[5,6][1,4]diazepino[7,1-a]indole-10-carboxylic acid], the IC50 was < 100 nM.
For `COc1ccc2c(c1)N(CCOC(C)C)CCn1c-2c(C2CCCCC2)c2ccc(C(=O)O)cc21` [Example 1-480, 13-cyclohexyl-5-(2-isopropoxyethyl)-3-methoxy-6,7-dihydro-5H-benzo[5,6][1,4]diazepino[7,1-a]indole-10-carboxylic acid], the IC50 was < 100 nM.
In the case of `COCCN1CCn2c(c(C3CCCCC3)c3ccc(C(=O)NC4(C(=O)Nc5ccc(/C=C/C(=O)O)cc5)CCC4)cc32)-c2ccc(OC)cc21` [Example 1-481, (E)-3-{4-[(1-{[13-cyclohexyl-3-methoxy-5-(2-methoxyethyl)-6,7-dihydro-5H-benzo[5,6][1,4]diazepino[7,1-a]indole-10-carbonyl]amino}cyclobutanecarbonyl)amino]phenyl}acrylic acid], the IC50 is reported as < 100 nM.
With `COc1ccc2c(c1)N(CCOC(C)C)CCn1c-2c(C2CCCCC2)c2ccc(C(=O)NC3(C(=O)Nc4ccc(/C=C/C(=O)O)cc4)CCC3)cc21` [Example 1-482, (E)-3-{4-[(1-{[13-cyclohexyl-5-(2-isopropoxyethyl)-3-methoxy-6,7-dihydro-5H-benzo[5,6][1,4]diazepino[7,1-a]indole-10-carbonyl]amino}cyclobutanecarbonyl)amino]phenyl}acrylic acid] the IC50 was < 100 nM.
`COc1ccc2c(c1)N(CC(C)C)CCn1c-2c(C2CCCCC2)c2ccc(C(=O)O)cc21` [Example 1-483, 13-cyclohexyl-5-isobutyl-3-methoxy-6,7-dihydro-5H-benzo[5,6][1,4]diazepino[7,1-a]indole-10-carboxylic acid] was tested, and the IC50 was < 100 nM.
For `COc1ccc2c(c1)N(CC(C)C)CCn1c-2c(C2CCCCC2)c2ccc(C(=O)NC3(C(=O)Nc4ccc(/C=C/C(=O)O)cc4)CCC3)cc21` [Example 1-484, (E)-3-[4-({1-[(13-cyclohexyl-5-isobutyl-3-methoxy-6,7-dihydro-5H-benzo[5,6][1,4]diazepino[7,1-a]indole-10-carbonyl)amino]cyclobutanecarbonyl}amino)phenyl]acrylic acid], the IC50 was < 100 nM.
`O=C(O)c1ccc2c(C3CCCCC3)c3n(c2c1)CCN(CCN1CCC[C@H](COc2ccccc2)C1)c1ccccc1-3` [Example 1-485, 13-cyclohexyl-5-[2-((S)-3-phenoxymethylpiperidin-1-yl)ethyl]-6,7-dihydro-5H-benzo[5,6][1,4]diazepino[7,1-a]indole-10-carboxylic acid dihydrochloride] was tested, and the IC50 was < 100 nM.
In the case of `O=C(O)c1ccc2c(C3CCCCCC3)c3n(c2c1)CCN(CCN1CCCCC1)c1cc(Cl)ccc1-3` [Example 1-486, 3-chloro-13-cycloheptyl-5-[2-(piperidin-1-yl)ethyl]-6,7-dihydro-5H-benzo[5,6][1,4]diazepino[7,1-a]indole-10-carboxylic acid], the IC50 is reported as < 100 nM.
In the case of `Cc1ccc2c(c1)N(CCC13CCC(CC1)N3Cc1ccccc1)CCn1c-2c(C2CCCCC2)c2ccc(C(=O)O)cc21` [Example 1-487, 5-[2-(7-benzyl-7-azabicyclo[2.2.1]hept-1-yl)ethyl]-13-cyclohexyl-3-methyl-6,7-dihydro-5H-benzo[5,6][1,4]diazepino[7,1-a]indole-10-carboxylic acid], the IC50 is reported as < 100 nM.

Same assay, conditions: 25° C., 90 min; [5,6-3H]UTP incorporation into RNA; read-out: HCV polymerase inhibitory activity IC50
For `COC(=O)C(Cc1ccc(O)cc1)NC(=O)c1ccc2c(C3CCCCC3)c3n(c2c1)CCN(C)c1cc(C)ccc1-3` [Example 1-473, methyl (S)-2-[(13-cyclohexyl-3,5-dimethyl-6,7-dihydro-5H-benzo[5,6][1,4]diazepino[7,1-a]indole-10-carbonyl)amino]-3-(4-hydroxyphenyl)propionate], the IC50 was < 100 nM.

Reference: patent publication US20070049593A1 (priority 2004, published 2007)
